# Measured values: paper PMC10353390, “Biological and Structural Analyses of New Potent Allosteric Inhibitors of HIV-1 Integrase” (Antimicrobial Agents and Chemotherapy, 2023)
# Tests used:
# HIV-1 IN = biological target: T1, HIV-1 IN (Human immunodeficiency virus type 1 group M subtype B, UniProt P12497); test: HTRF IN multimerization assay; format: biochemical; conditions: mean ± SD
# T1 construct: made in house
# From the text: A key property of INLAIs is the ability to promote HIV-1 IN homo-multimerization ([39][–][42]). […] The maximal signal (plateau) in our IN aggregation assay corresponds to the highest HTRF signal increase under saturating INLAI concentration, relative to baseline level. Thus, MUT916, MUT884, MUT871, and MUT872 increased HIV-1 IN aggregation 3.7 to 4.4-fold, while BDM-2, BI-224436, and S-I-82 did so 5 to 6-fold (Table 1).
# HXB2 HIV-1 strain = test: Multiple-round infection assay in MT4 cells, HXB2; format: cell-based; conditions: Human immunodeficiency virus 1, HXB2; multiple-round infection, MT4 cells; mean ± SD, n > 5; read-out: EC50 HXB2
# Procedure, shortened: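 Antiviral read-out was CellTiter-Glo luminescent viability of exponentially growing MT4 cells (10^6/mL). Cells were exposed to HIV-1 for 2 h at an MOI of 0.001 while compound was present at varying concentrations.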
# NL4-3 HIV-1 strain = test: Multiple-round infection assay in MT4 cells, NL4-3; format: cell-based; conditions: MT4 cells
# [1] = Cytotoxicity assay in MT4 cells; format: cell-based; conditions: human, MT4 cells (proliferating human T-cell line), CellTiter-Glo
# From the text: Growth inhibition was monitored in a proliferating human T-cell line (MT4) with different concentrations of compounds, using the CellTiter-Glo luminescent reagent (Promega), as previously described ([12]).
# [2] = tested on: VSV-G-pseudotyped NL4-3Δenv-luc; test: microbe, parasite or virus in culture; format: cell-based, HIV-1
# [3] = tested on: recombinant NL4-3 viruses with polymorphisms at IN positions 124 and 125; test: Multiple-round infection of MT4 cells with recombinant NL4-3 viruses polymorphic at IN positions 124 and 125; format: cell-based, HIV-1
# From the text: Located on the HIV-1 IN CCD dimerization interface, the principal INLAI binding pocket overlaps with a hot spot of amino acid sequence polymorphism involving IN residues 124 and 125 ([16]). To test if the new INLAIs maintained antiviral activity against major polymorphisms, we introduced all major combinations of residues found in circulating HIV-1 strains at positions 124 and 125 into NL4-3 HIV-1 molecular clone. In total, we evaluated 15 such combinations that collectively covered 98% of all HIV-1 clade polymorphisms involving these positions ([48]). To gauge effects on the antiviral activity, we calculated the EC50 fold change (FC) relative to wild type NL4-3 HIV-1 strain that features Thr124 and Thr125 (TT; specific polymorphisms are referred to by a single letter amino acid code).
# (§1) MT4 cells growing exponentially at the density of 10^6/mL were infected with HIV-1 strain NL4-3 at a multiplicity of infection (MOI) of 0.001 for 2 h in the presence of different concentrations of compounds, and the CellTiter-Glo luminescent reagent (Promega) was used to quantify cell viability as described previously ([12]).
# [4] = tested on: primary HIV-1 isolates with polymorphisms at IN positions 124 and 125; test: Multiple-round infection of MT4 cells with primary HIV-1 isolates polymorphic at IN positions 124 and 125; format: cell-based; conditions: primary isolate
# Procedure: Next, we evaluated the potency of the BDM-2 series of INLAIs against several primary HIV-1 isolates with polymorphisms at IN positions 124 and 125.
# as §1
# [5] = tested on: HIV-1 strains resistant to INSTIs, NRTIs, NNRTIs or PIs; format: cell-based
# Procedure, shortened: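 Cell viability (CellTiter-Glo luminescence) served as read-out in MT4 cells at 10^6/mL, infected 2 h at MOI 0.001 in presence of graded compound concentrations. Viruses: resistance-mutation recombinants in NL4-3 backbone plus resistant clinical isolates.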
# [6] = tested on: NL4-3 HIV-1 with INLAI-selected IN single point mutations; format: cell-based
# [7] = biological target: HIV-1 IN-LEDGF/p75 interaction (Human immunodeficiency virus type 1 group M subtype B, UniProt P12497); test: biochemical
# Procedure: (§2) The INLAIs were tested for the ability to inhibit the HIV-1 IN-LEDGF/p75 interaction in a homogeneous time-resolved fluorescence (HTRF) assay. Our assays used either full-length IN and LEDGF/p75 proteins or their respective minimally sufficient interaction domains: the CCD of HIV-1 IN and the IBD of LEDGF/p75 (Table 1).
# (§3) HTRF-based CCD-IBD interaction, IN-LEDGF/p75 interaction and IN multimerization assays were performed as described previously ([12]).
# [8] = biological target: CCD of HIV-1 IN and IBD of LEDGF/p75 (Human immunodeficiency virus type 1 group M subtype B, UniProt P12497); test: biochemical
# Procedure: as §2, §3
# [9] = INSTI-resistant, NL4-3 background
smiles,measurement,setting,value
Cc1ccc(C2CC2)c(-c2cc(F)c3c(c2C)CCCO3)c1[C@H](OC1CC1)C(=O)O [MUT916],AC50,HIV-1 IN; concentration for 50% maximum activation of multimerization,0.022 ± 0.002 µM
same,IN multimerization Plateau,HIV-1 IN; maximum multimerization reached versus baseline,370 ± 60%
same,EC50,HXB2 HIV-1 strain,0.0088 ± 0.0008 µM
same,EC90,"NL4-3 HIV-1 strain; Human immunodeficiency virus 1, NL43, multiple-round infection, from dose response curves, read-out: EC90 NL4-3",0.03 ± 0.015 µM
same,EC50,"NL4-3 HIV-1 strain; Human immunodeficiency virus 1, NL43, multiple-round infection, mean ± SD, n > 5, read-out: EC50 NL4-3",0.02 ± 0.009 µM
same,Selectivity index CC50/EC50 NL4-3,NL4-3 HIV-1 strain,"3,900"
same,CC50,[1],78 ± 6 µM
same,EC50 ratio (single/multiple-round infection),[2],105
same,EC50,"[2]; Human immunodeficiency virus 1, NL43, MT4, read-out: EC50 in single-round infection",2.1 ± 0.2 µM
same,"Fold change in EC50 relative to parental NL4-3, AA","[3]; recombinant NL4-3, IN 124/125 AA",1
same,"Fold change in EC50 relative to parental NL4-3, AM","[3]; recombinant NL4-3, IN 124/125 AM",0.2
same,"Fold change in EC50 relative to parental NL4-3, AT","[3]; recombinant NL4-3, IN 124/125 AT",0.5
same,"Fold change in EC50 relative to parental NL4-3, AV","[3]; recombinant NL4-3, IN 124/125 AV",0.4
same,"Fold change in EC50 relative to parental NL4-3, GA","[3]; recombinant NL4-3, IN 124/125 GA",1
same,"Fold change in EC50 relative to parental NL4-3, GT","[3]; recombinant NL4-3, IN 124/125 GT",1
same,"Fold change in EC50 relative to parental NL4-3, NA","[3]; recombinant NL4-3, IN 124/125 NA",4
same,"Fold change in EC50 relative to parental NL4-3, NT","[3]; recombinant NL4-3, IN 124/125 NT",1
same,"Fold change in EC50 relative to parental NL4-3, NV","[3]; recombinant NL4-3, IN 124/125 NV",0.4
same,"Fold change in EC50 relative to parental NL4-3, SA","[3]; recombinant NL4-3, IN 124/125 SA",1
same,"Fold change in EC50 relative to parental NL4-3, ST","[3]; recombinant NL4-3, IN 124/125 ST",1
same,"Fold change in EC50 relative to parental NL4-3, TA","[3]; recombinant NL4-3, IN 124/125 TA",1
same,"Fold change in EC50 relative to parental NL4-3, TM","[3]; recombinant NL4-3, IN 124/125 TM",0.2
same,"Fold change in EC50 relative to parental NL4-3, TV","[3]; recombinant NL4-3, IN 124/125 TV",0.4
same,"Fold change in EC50 relative to parental NL4-3, CAM2BBY (CRF02)",[4]; IN 124/125 AA,1
same,"Fold change in EC50 relative to parental NL4-3, E0836M4 (D)",[4]; IN 124/125 AA,1
same,"Fold change in EC50 relative to parental NL4-3, KER2008 (A)",[4]; IN 124/125 AA,1
same,"Fold change in EC50 relative to parental NL4-3, NP1525 (CRF01)",[4]; IN 124/125 AA,1
same,"Fold change in EC50 relative to parental NL4-3, NP1695 (CRF02)",[4]; IN 124/125 AA,2
same,"Fold change in EC50 relative to parental NL4-3, TZA125 (C)",[4]; IN 124/125 AA,0.4
same,"Fold change in EC50 relative to parental NL4-3, KSM4030 (A)",[4]; IN 124/125 GA,1
same,"Fold change in EC50 relative to parental NL4-3, vGA (C)",[4]; IN 124/125 GA,5
same,"Fold change in EC50 relative to parental NL4-3, 99ET14 (C)",[4]; IN 124/125 NA,2
same,"Fold change in EC50 relative to parental NL4-3, NP1538 (B)",[4]; IN 124/125 NA,2
same,"Fold change in EC50 relative to parental NL4-3, vNA_1 (B)",[4]; IN 124/125 NA,4
same,"Fold change in EC50 relative to parental NL4-3, vNA_2 (CRF02)",[4]; IN 124/125 NA,10
same,"Fold change in EC50 relative to parental NL4-3, vNV (B)",[4]; IN 124/125 NV,1
same,"Fold change in EC50 relative to parental NL4-3, vSA_1 (B)",[4]; IN 124/125 SA,3
same,"Fold change in EC50 relative to parental NL4-3, vSA_2 (CRF02)",[4]; IN 124/125 SA,4
same,"Fold change in EC50 relative to parental NL4-3, vTA_1 (B)",[4]; IN 124/125 TA,2
same,"Fold change in EC50 relative to parental NL4-3, vTA_2 (CRF02)",[4]; IN 124/125 TA,2
same,"Fold change in EC50 relative to NL4-3, E92Q",[5]; [9],1
same,"Fold change in EC50 relative to NL4-3, G140S",[5]; [9],1
same,"Fold change in EC50 relative to NL4-3, G140S/Q148H",[5]; [9],1
same,"Fold change in EC50 relative to NL4-3, N155H",[5]; [9],1
same,"Fold change in EC50 relative to NL4-3, Q148H",[5]; [9],1
same,"Fold change in EC50 relative to NL4-3, Y143R",[5]; [9],0.4
same,"Fold change in EC50 relative to NL4-3, NLAY351717",[5]; NRTI-resistant clone,1
same,"Fold change in EC50 relative to NL4-3, NLAY351753",[5]; NRTI/NNRTI-resistant clone,2
same,"Fold change in EC50 relative to NL4-3, K103N/Y181C","[5]; NRTI/NNRTIs group, NL4-3 background",1
same,"Fold change in EC50 relative to NL4-3, ARP-4595",[5]; PI-resistant virus,2
same,"Fold change in EC50 relative to NL4-3, ARP-4596",[5]; PI-resistant virus,1
same,"Fold change in EC50 relative to NL4-3, ARP-11801",[5]; PI-resistant virus,2
same,"Fold change in EC50 relative to NL4-3, ARP-11803",[5]; PI-resistant virus,2
same,"Fold change in EC50 relative to NL4-3, ARP-11807",[5]; PI-resistant virus,2
same,"Fold change in EC50 relative to NL4-3, ARP-11808",[5]; PI-resistant virus,2
same,"EC50 fold change compared to wild type NL4-3, A128T",[6],4
same,"EC50 fold change compared to wild type NL4-3, H171Q",[6],1
same,"EC50 fold change compared to wild type NL4-3, N222K",[6],3
same,"EC50 fold change compared to wild type NL4-3, T174I",[6],14
same,"EC50 fold change compared to wild type NL4-3, Y99H",[6],3
same,IC50,[7],0.046 ± 0.016 µM
same,IC50,[8],0.019 ± 0.008 µM
